A short description of series [1]: MTT cytotoxicity assay with non-infected HEp2 cells. The conditions noted are these: human.
Series [2] deals with RSV A strain A2. Description: In vitro antiviral assay against RSV A strain A2 in HEp-2 cells (ELISA, virus titer). It counts as cell-based, respiratory syncytial virus. The conditions noted are these: for IC50: human respiratory syncytial virus, HEp-2, 50% decrease in virus replication, RSV A strain A2 in HEp-2 cells, mean ± SD; for SI: selectivity index, CC50/IC50 ratio, RSV A2 / HEp-2. On the technique in general: An ELISA detects its analyte on a solid surface through an enzyme-linked reagent.

Series [3] relates to A/Puerto Rico/8/34 (H1N1) virus. The arrangement: method as in PMID 30108810. Conditions: CC50/IC50H1N1, A/Puerto Rico/8/34 (H1N1) ref 15; cited from earlier work.
Series [4] deals with rVSV-ΔG-MarV-GP. Conditions: CC50/IC50MarV-GP, HEK293T cells ref 12,13; cited from earlier work.
Series [5] deals with rVSV-ΔG-EboV-GP. Conditions: CC50/IC50EboV-GP, HEK293T cells ref 12,13; cited from earlier work.

With `CN(C)CC(=O)O[C@@H]1C[C@@H]2CC[C@@]1(C)C2(C)C` [Compound 3a], half-maximal cytotoxicity in series [1] (CC50 at 24 h) was put at 497 ± 53.2 µM. Further, in series [2], the IC50 is 134 ± 19.5 µM and the SI turned out to be 4.
Turning to `CN(C)CCCC(=O)O[C@@H]1C[C@@H]2CC[C@@]1(C)C2(C)C` [Compound 3c], the midpoint of cytotoxicity in series [1], the CC50 at 24 h, lay at 228 ± 23.5 µM. Also, in series [2], inhibition was half-maximal at 23.9 ± 3.7 µM (IC50) and the SI is recorded as 10.
In series [1], `CCN(CC)CC(=O)O[C@@H]1C[C@@H]2CC[C@@]1(C)C2(C)C` [Compound 4a] showed a CC50 at 24 h of 669 ± 56.4 µM. For the same compound, in series [2], the IC50 came to 355 ± 51.1 µM and the SI is 2.
`CCN(CC)CCC(=O)O[C@@H]1C[C@@H]2CC[C@@]1(C)C2(C)C` [Compound 4b] displayed a CC50 at 24 h in series [1] of 391 ± 23.1 µM. Also, in series [2], it took 99.5 ± 8.7 µM to reach half-maximal inhibition (IC50) and the SI is listed as 4.
The like results for `CCN(CC)CCCC(=O)O[C@@H]1C[C@@H]2CC[C@@]1(C)C2(C)C` [Compound 4c] were, in that order, 152 ± 12.1 µM, 30.5 ± 2.9 µM and 5.
In series [1], `CC1(C)[C@H]2CC[C@]1(C)[C@H](OC(=O)CN1CCCCC1)C2` [Compound 6a] showed a CC50 at 24 h of 129 ± 9.8 µM. In series [2], it took 41.9 ± 3.1 µM to reach half-maximal inhibition (IC50) and the SI was 3.
The like results for `CC1(C)[C@H]2CC[C@]1(C)[C@H](OC(=O)CCCN1CCCCC1)C2` [Compound 6c] were, in that order, 117 ± 11.1 µM, 39 ± 4.1 µM and 3.
As to `CC1CCN(CC(=O)O[C@@H]2C[C@@H]3CC[C@@]2(C)C3(C)C)CC1` [Compound 7a], in series [1], the CC50 at 24 h amounted to 399 ± 4.8 µM. In addition, in series [2], half-maximal inhibition (IC50) required 109 ± 10.7 µM and the SI worked out at 4.
As to `CC1CCN(CCC(=O)O[C@@H]2C[C@@H]3CC[C@@]2(C)C3(C)C)CC1` [Compound 7b], in series [1], half-maximal cytotoxicity (CC50 at 24 h) was put at 159 ± 17.1 µM. Besides, in series [2], inhibition was half-maximal at 6.2 ± 2.1 µM (IC50) and the SI came to 26.
`CC1CCN(CCCC(=O)O[C@@H]2C[C@@H]3CC[C@@]2(C)C3(C)C)CC1` [Compound 7c] gave a CC50 at 24 h in series [1] of 59.1 ± 4.8 µM. In series [2], the IC50 was found to be 19.9 ± 2.3 µM and the SI was determined as 3.
For `CC1(C)[C@H]2CC[C@]1(C)[C@H](OC(=O)CN1CCCCCC1)C2` [Compound 8a] the same measures were 85.2 ± 5.6 µM, 61.3 ± 3.2 µM and 1.
For `CC1(C)[C@H]2CC[C@]1(C)[C@H](OC(=O)CCN1CCCCCC1)C2` [Compound 8b], the CC50 at 24 h in series [1] was 345 ± 24.6 µM. In addition, in series [2], the IC50 was found to be 97.6 ± 8.9 µM and the SI turned out to be 3.
The like results for `CC1(C)[C@H]2CC[C@]1(C)[C@H](OC(=O)CCCN1CCCCCC1)C2` [Compound 8c] were, in that order, 159 ± 12.4 µM, 34.2 ± 1.1 µM and 5.
For `CN1CCN(CC(=O)O[C@@H]2C[C@@H]3CC[C@@]2(C)C3(C)C)CC1` [Compound 9a] the same measures were 267 ± 16.5 µM, 13.9 ± 2.4 µM and 19.
In series [1], `CN1CCN(CCC(=O)O[C@@H]2C[C@@H]3CC[C@@]2(C)C3(C)C)CC1` [Compound 9b] showed a CC50 at 24 h of 169 ± 12.1 µM. Besides, in series [2], the IC50 was determined as 17.2 ± 1.9 µM and the SI was 10.
For the compound `CN1CCN(CCCC(=O)O[C@@H]2C[C@@H]3CC[C@@]2(C)C3(C)C)CC1` [Compound 9c], half-maximal cytotoxicity in series [1] (CC50 at 24 h) was put at 198 ± 13.6 µM. Further, in series [2], half-maximal inhibition (IC50) was put at 5.1 ± 0.8 µM and the SI is given as 39.
`CCN1CCN(CC(=O)O[C@@H]2C[C@@H]3CC[C@@]2(C)C3(C)C)CC1` [Compound 10a] registered a CC50 at 24 h in series [1] of 217 ± 18.9 µM. Moreover, in series [2], half-maximal inhibition (IC50) required 57.7 ± 2.2 µM and the SI was 4.
For `CCN1CCN(CCC(=O)O[C@@H]2C[C@@H]3CC[C@@]2(C)C3(C)C)CC1` [Compound 10b] the same measures were 117 ± 11.7 µM, 5.9 ± 1.4 µM and 20.
For the compound `CCN1CCN(CCCC(=O)O[C@@H]2C[C@@H]3CC[C@@]2(C)C3(C)C)CC1` [Compound 10c], in series [1], the CC50 at 24 h stood at 208 ± 21.4 µM. In series [2], it took 9.8 ± 2.5 µM to reach half-maximal inhibition (IC50) and the SI is on record as 21.
In turn, `CC1(C)[C@H]2CC[C@]1(C)[C@H](OC(=O)CN1CCN(Cc3ccccc3)CC1)C2` [Compound 11a] displayed a CC50 at 24 h in series [1] of 51.3 ± 4.9 µM. For the same compound, in series [2], the IC50 worked out at 21.6 ± 2.6 µM and the SI is given as 2.
In the case of `CC1(C)[C@H]2CC[C@]1(C)[C@H](OC(=O)CCN1CCN(Cc3ccccc3)CC1)C2` [Compound 11b], in series [1], the CC50 at 24 h came out at 49.4 ± 5.6 µM. In series [2], the IC50 was 46.8 ± 7.2 µM and the SI was 1.
The like results for `CC1(C)[C@H]2CC[C@]1(C)[C@H](OC(=O)CCCN1CCN(Cc3ccccc3)CC1)C2` [Compound 11c] were, in that order, 82.8 ± 7.9 µM, 25.1 ± 3.5 µM and 3.
The like results for `CC1(C)[C@H]2CC[C@]1(C)[C@H](OC(=O)CN1CCSCC1)C2` [Compound 12a, (1S,2R,4S)-1,7,7-Trimethylbicyclo [2.2.1]heptan-2-yl 2-thiomorpholinoacetate] were, in that order, 126 ± 10.5 µM, 69.6 ± 16.2 µM and 2.
In series [1], `CC1(C)[C@H]2CC[C@]1(C)[C@H](OC(=O)CCN1CCSCC1)C2` [Compound 12b, (1S,2R,4S)-1,7,7-trimethylbicyclo [2.2.1]heptan-2-yl 3-thiomorpholinopropanoate] displayed a cytotoxic concentration (CC50) at 24 h of 86 ± 7.4 µM. Moreover, in series [2], half-maximal inhibition (IC50) required 96.3 ± 3.5 µM and the SI was found to be 1.
The compound `CC1(C)[C@H]2CC[C@]1(C)[C@H](OC(=O)CCCN1CCSCC1)C2` [Compound 12c, (1S,2R,4S)-1,7,7-trimethylbicyclo [2.2.1]heptan-2-yl 4-thiomorpholinobutanoate] showed a CC50 at 24 h in series [1] of 56.5 ± 3.8 µM. In addition, in series [2], the IC50 stood at 75.3 ± 7.9 µM and the SI is recorded as 1.
For `CC1(C)[C@H]2CC[C@]1(C)[C@H](OC(=O)CN1CCC(Cc3ccccc3)CC1)C2` [Compound 13a, (1S,2R,4S)-1,7,7-trimethylbicyclo [2.2.1]heptan-2-yl 2-(4-benzylpiperidin-1-yl)acetate] the same measures were 116 ± 13.4 µM, 21.6 ± 1.8 µM and 5.
As to `CC1(C)[C@H]2CC[C@]1(C)[C@H](OC(=O)CCN1CCC(Cc3ccccc3)CC1)C2` [Compound 13b, (1S,2R,4S)-1,7,7-trimethylbicyclo [2.2.1]heptan-2-yl 3-(4-benzylpiperidin-1-yl)propanoate], in series [1], it took 25.5 ± 11.4 µM to reach half-maximal cytotoxicity (CC50 at 24 h). Further, in series [2], the midpoint of inhibition, the IC50, lay at 14.9 ± 1 µM and the SI is listed as 2.
For `CC1(C)[C@H]2CC[C@]1(C)[C@H](OC(=O)CCCN1CCC(Cc3ccccc3)CC1)C2` [Compound 13c, (1S,2R,4S)-1,7,7-trimethylbicyclo [2.2.1]heptan-2-yl 4-(4-benzylpiperidin-1-yl)butanoate], the CC50 at 24 h in series [1] amounted to 40.2 ± 5.1 µM. Also, in series [2], the IC50 worked out at 7.3 ± 0.6 µM and the SI was determined as 5.
For `CC1(C)[C@H]2CC[C@]1(C)[C@H](OC(=O)CN1CCN(c3ccccc3)CC1)C2` [Compound 14a, (1S,2R,4S)-1,7,7-Trimethylbicyclo [2.2.1]heptan-2-yl 2-(4-phenylpiperazin-1-yl)acetate] the same measures were 26.4 ± 3.8 µM, 4.6 ± 1.1 µM and 6.
The like results for `CC1(C)[C@H]2CC[C@]1(C)[C@H](OC(=O)CCCN1CCN(c3ccccc3)CC1)C2` [Compound 14c, (1S,2R,4S)-1,7,7-trimethylbicyclo [2.2.1]heptan-2-yl 4-(4-phenylpiperazin-1-yl)butanoate] were, in that order, 23.9 ± 8.7 µM, 12 ± 2 µM and 2.
`CC1(C)[C@H]2CC[C@]1(C)[C@H](OC(=O)CN1CCN(c3ccccc3F)CC1)C2` [Compound 15a, (1S,2R,4S)-1,7,7-trimethylbicyclo [2.2.1]heptan-2-yl 2-(4-(2-fluorophenyl)piperazin-1-yl)acetate]: the CC50 at 24 h in series [1] was determined as 27.5 ± 3.8 µM. In series [2], 2.7 ± 0.7 µM corresponded to half-maximal inhibition (IC50) and the SI amounted to 10.
Compound `CC1(C)[C@H]2CC[C@]1(C)[C@H](OC(=O)CCN1CCN(c3ccccc3F)CC1)C2` [Compound 15b, (1S,2R,4S)-1,7,7-trimethylbicyclo [2.2.1]heptan-2-yl 3-(4-(2-fluorophenyl)piperazin-1-yl)propanoate] returned a CC50 at 24 h in series [1] of 20.1 ± 12.1 µM. In series [2], inhibition was half-maximal at 8.2 ± 0.8 µM (IC50) and the SI was 2.
The like results for `CC1(C)[C@H]2CC[C@]1(C)[C@H](OC(=O)CCCN1CCN(c3ccccc3F)CC1)C2` [Compound 15c, (1S,2R,4S)-1,7,7-trimethylbicyclo [2.2.1]heptan-2-yl 4-(4-(2-fluorophenyl)piperazin-1-yl)butanoate] were, in that order, 27.8 ± 7.4 µM, 14.7 ± 2.1 µM and 2.
As to `CN1CCN(CC(=O)OC2CC3CCC2(C)C3(C)C)CC1` (stereo not drawn) [I (n=1)], in series [3], the SIH1N1 result is “^c SIH1N1 = 23”. Moreover, the SIMarV-GP result in series [4] is given as “^a SIMarV-GP = 14”. For the same compound, the SIEboV-GP result in series [5] is on record as “^b SIEboV-GP = 46”.
For `CN1CCN(CCC(=O)OC2CC3CCC2(C)C3(C)C)CC1` (stereo not drawn) [I (n=2)], in series [3], the SIH1N1 result is on record as “^c SIH1N1 = 25”. The SIMarV-GP result in series [4] is “^a SIMarV-GP = 20”. Also, the SIEboV-GP result in series [5] is listed as “^b SIEboV-GP = 870”.
For `CCN1CCN(CC(=O)OC2CC3CCC2(C)C3(C)C)CC1` (stereo not drawn) [II (n=1)], in series [3], the SIH1N1 result is “^c SIH1N1 = 16”. The SIMarV-GP entry in series [4] is given as “^a SIMarV-GP = 29”. Moreover, the SIEboV-GP entry in series [5] is listed as “^b SIEboV-GP = 80”.
Regarding `CCN1CCN(CCC(=O)OC2CC3CCC2(C)C3(C)C)CC1` (stereo not drawn) [II (n=2)], the SIH1N1 result in series [3] is listed as “^c SIH1N1 = 12”. Moreover, the SIMarV-GP result in series [4] is recorded as “^a SIMarV-GP = 47”. Besides, the SIEboV-GP result in series [5] was “^b SIEboV-GP = 170”.

By CC50 is commonly meant the concentration at which the toxic effect on the cells reaches its halfway point. Low values mean harm at low concentration, high ones better tolerance by the cells. A word on the IC50: it is the concentration needed to halve the response being measured. Higher therefore signals a need for much substance.
